# Assay: Toxicology in rats, oral, histopathology
# Type: in vivo
# Conditions: rat, in vivo, po
# Excerpt: After 32 days, the rats were sacrificed and their organs were examined under a microscope.
smiles,measurement,setting,value
O.O.O.O.[Na+].[O-]B1OO1 [sodium perborate tetrahydrate],"LIVER Within normal limits, %",1 mg/kg,100%
same,"LIVER Within normal limits, No Exam",1 mg/kg,10/10
same,"LUNG Lymphocytic infiltration, %",1 mg/kg,0%
same,"LUNG Lymphocytic infiltration, No Exam",1 mg/kg,0/10
same,"LUNG Notable or abnormal, %",1 mg/kg,0%
same,"LUNG Notable or abnormal, No Exam",1 mg/kg,0/10
same,"LUNG Pulmonary edema, %",1 mg/kg,0%
same,"LUNG Pulmonary edema, No Exam",1 mg/kg,0/10
same,"LUNG Within normal limits, %",1 mg/kg,100%
same,"LUNG Within normal limits, No Exam",1 mg/kg,10/10
same,"PANCREAS Notable or abnormal, %",1 mg/kg,0%
same,"PANCREAS Notable or abnormal, No Exam",1 mg/kg,0/10
same,"PANCREAS Within normal limits, %",1 mg/kg,100%
same,"PANCREAS Within normal limits, No Exam",1 mg/kg,10/10
same,"SPLEEN Notable or abnormal, %",1 mg/kg,0%
same,"SPLEEN Notable or abnormal, No Exam",1 mg/kg,0/10
same,"SPLEEN Within normal limits, %",1 mg/kg,100%
same,"SPLEEN Within normal limits, No Exam",1 mg/kg,10/10
same,"STOMACH Notable or abnormal, %",1 mg/kg,0%
same,"STOMACH Notable or abnormal, No Exam",1 mg/kg,0/10
same,"STOMACH Within normal limits, %",1 mg/kg,100%
same,"STOMACH Within normal limits, No Exam",1 mg/kg,10/10
same,"HEART Notable or abnormal, %",2 mg/kg,0%
same,"HEART Notable or abnormal, No Exam",2 mg/kg,0/10
same,"HEART Within normal limits, %",2 mg/kg,100%
same,"HEART Within normal limits, No Exam",2 mg/kg,10/10
same,"INTESTINE, Large Notable or abnormal, %",2 mg/kg,0%
same,"INTESTINE, Large Notable or abnormal, No Exam",2 mg/kg,0/10
same,"INTESTINE, Large Within normal limits, %",2 mg/kg,100%
same,"INTESTINE, Large Within normal limits, No Exam",2 mg/kg,10/10
same,"INTESTINE, Small Notable or abnormal, %",2 mg/kg,0%
same,"INTESTINE, Small Notable or abnormal, No Exam",2 mg/kg,0/10
same,"INTESTINE, Small Within normal limits, %",2 mg/kg,100%
same,"INTESTINE, Small Within normal limits, No Exam",2 mg/kg,10/10
same,"KIDNEY Edema, %",2 mg/kg,0%
same,"KIDNEY Edema, No Exam",2 mg/kg,0/10
same,"KIDNEY Notable or abnormal, %",2 mg/kg,0%
same,"KIDNEY Notable or abnormal, No Exam",2 mg/kg,0/10
same,"KIDNEY Within normal limits, %",2 mg/kg,100%
same,"KIDNEY Within normal limits, No Exam",2 mg/kg,10/10
same,"LIVER Fattening, %",2 mg/kg,0%
same,"LIVER Fattening, No Exam",2 mg/kg,0/10
same,"LIVER Infiltration, %",2 mg/kg,0%
same,"LIVER Infiltration, No Exam",2 mg/kg,0/10
same,"LIVER Notable or abnormal, %",2 mg/kg,0%
same,"LIVER Notable or abnormal, No Exam",2 mg/kg,0/10
same,"LIVER Within normal limits, %",2 mg/kg,100%
same,"LIVER Within normal limits, No Exam",2 mg/kg,10/10
same,"LUNG Lymphocytic infiltration, %",2 mg/kg,0%
same,"LUNG Lymphocytic infiltration, No Exam",2 mg/kg,0/10
same,"LUNG Notable or abnormal, %",2 mg/kg,0%
same,"LUNG Notable or abnormal, No Exam",2 mg/kg,0/10
same,"LUNG Pulmonary edema, %",2 mg/kg,0%
same,"LUNG Pulmonary edema, No Exam",2 mg/kg,0/10
same,"LUNG Within normal limits, %",2 mg/kg,100%
same,"LUNG Within normal limits, No Exam",2 mg/kg,10/10
same,"PANCREAS Notable or abnormal, %",2 mg/kg,0%
same,"PANCREAS Notable or abnormal, No Exam",2 mg/kg,0/10
same,"PANCREAS Within normal limits, %",2 mg/kg,100%
same,"PANCREAS Within normal limits, No Exam",2 mg/kg,10/10
same,"SPLEEN Notable or abnormal, %",2 mg/kg,0%
same,"SPLEEN Notable or abnormal, No Exam",2 mg/kg,0/10
same,"SPLEEN Within normal limits, %",2 mg/kg,100%
same,"SPLEEN Within normal limits, No Exam",2 mg/kg,10/10
same,"STOMACH Notable or abnormal, %",2 mg/kg,0%
same,"STOMACH Notable or abnormal, No Exam",2 mg/kg,0/10
same,"STOMACH Within normal limits, %",2 mg/kg,100%
same,"STOMACH Within normal limits, No Exam",2 mg/kg,10/10
same,"HEART Notable or abnormal, %",4 mg/kg,0%
same,"HEART Notable or abnormal, No Exam",4 mg/kg,0/10
same,"HEART Within normal limits, %",4 mg/kg,100%
same,"HEART Within normal limits, No Exam",4 mg/kg,10/10
same,"INTESTINE, Large Notable or abnormal, %",4 mg/kg,0%
same,"INTESTINE, Large Notable or abnormal, No Exam",4 mg/kg,0/10
same,"INTESTINE, Large Within normal limits, %",4 mg/kg,100%
same,"INTESTINE, Large Within normal limits, No Exam",4 mg/kg,10/10
same,"INTESTINE, Small Notable or abnormal, %",4 mg/kg,0%
same,"INTESTINE, Small Notable or abnormal, No Exam",4 mg/kg,0/10
same,"INTESTINE, Small Within normal limits, %",4 mg/kg,100%
same,"INTESTINE, Small Within normal limits, No Exam",4 mg/kg,10/10
same,"KIDNEY Edema, %",4 mg/kg,0%
